# According to patent US4317768A, “Dihydropyridine derivatives as stabilizers for vinyl chloride polymers” (priority 1977, dated 1982):
# Where “and” joins values, the source holds several entries; their conditions need not be identical. Equal values may be shown once.
# Columns and labels:
# [1] = Static thermostability (GARDNER method), rigid PVC sheets, 210° C., 0.3 part stabilizer
# Experimental: (§1) This study was carried out according to the GARDNER method, described in British Pat. No. 1,489,685.
# (§2) The reference substance was 2-phenyl-indole, a well-known and widely used stabilizer.
# (§3) The stabilizer (dihydropyridine or 2-phenyl-indole) and the other usual ingredients were mixed with powdered vinyl resins and the mixtures were calendered at a temperature of 160° C. to give rigid sheets.
# (§4) The sheets were then heated in a thermostated oven (185° C. or 210° C.) for different intervals of time until incipient carbonization.
# (§5) The coloration of the samples was compared to a standard scale of coloration, known as the GARDNER scale and was expressed in terms of the reference figures of the GARDNER scale.
# (§6) This study was carried out with the following resin:
# (§7) Polyvinyl chloride resin
# (§8) SL 2016 is a solution of zinc-2-ethyl-hexanoate in a mixture of hydrocarbons boiling between 158° C. and 184° C.
# The first trial was carried out at 210° C. with a resin containing 0.3 part by weight of stabilizer, the sheets being removed from the oven every three minutes over a period of 21 minutes.
# [2] = Static thermostability (GARDNER method), rigid PVC sheets, 185° C., 0.3 part stabilizer
# Experimental: as §1, §2, §3, §4, §5, §6, §7, §8
# A second trial was performed at a temperature of 185° C., with a resin containing 0.3 part of stabilizer, the samples being removed from the oven every 6 minutes over a period of 24 minutes, then every 3 minutes until the 42nd minute (or until carbonization).
# [3] = Comparison with stabilizer G1, rigid co-polymer, 0.5 part, 185° C.
# From the text: (b) Comparison with stabilizer G1
# Stabilizer G1 is a mixture of 1,4-butanediol-β-aminocrotonate and of β-aminocrotonate of alcohols containing from 16 to 18 carbon atoms.
# [4] = Comparison with stabilizer G1, rigid co-polymer (12.5 to 13.5% of acetate), 0.5 part, 185° C.
# From the text: Another comparison was made with the following rigid co-polymer: […]
# [5] = Comparison with stabilizer G1, 0.1 part, 185° C.
# Experimental: A test was also carried out with the following compound:
# Another test was made with the same resin but containing 0.1 part of stabilizer.
# [6] = Photostabilizing power, PVC plates exposed to the sun, GARDNER scale
# Experimental: (§9) The photostabilizing power of the compounds of the invention was studied by exposing to the sun polyvinyl chloride plates which had been stabilized either by a dihydropyridine of the invention or by 2-phenyl-indole, or again by 2-(3'-methoxy-4'-hydroxy)-indole. This last product is an extremely valuable thermostabilizer for thermoplastic resins and is described in British Pat. No. 1,489,685.
# (§10) The resin given hereunder was prepared by mixing on cylinders at 160° C.:
# (§11) The plates of stabilized polyvinyl chloride, together with a plate which had not been stabilized, were stood in the sun under the same conditions and at the same time. Their colour was measured after 6 hours and 12 hours of exposure.
# (§12) The coloration of the plates was determined according to two methods:
# On the plates themselves, following the GARDNER scale, as in the section on thermostability,
# The sign + means that the coloration lies between the lower unit and the upper half-unit. Thus, 3+ means that the coloration lies between 3 and 3.5. Similarly, the sign - means that the coloration lies between the lower half-unit and the upper unit.
# [7] = Photostabilizing power, tetrahydrofuran solution of plates exposed to the sun, French Pharmacopeia
# Experimental: as §9, §10, §11, §12
# On a solution of these plates in tetrahydrofuran, the coloration of th solution being measured according to the French Pharmacopeia (IXth edition, II-338).
# [8] = Polarographic study of the oxidation potential; type: physicochemical; conditions: acetonitrile, 0.1 M lithium perchlorate, vitrous carbon electrode, calomel reference
# From the text: By a polarographic study of their oxidation potential, compared to well-known antioxidants such as 2,6-diterbutyl-4-methyl-phenol, 2-terbutyl-4-methoxy-phenol, 4-methoxy-phenol and hydroquinone.
# Reference electrode: Calomel electrode containing a saturated solution of anhydrous lithium perchlorate as bridge liquid.
# Working electrode: Vitrous carbon rotating electrode (2,500 r.p.m.)
# Counter-electrode: Platinum electrode
# Acetonitrile containing less than 0.1% of water and presenting no polarographic waves between -2.5 V and +2.5 V.
# Anhydrous lithium perchlorate containing less than 1% of water.
# A 0.1 M solution of lithium perchlorate in acetonitrile, treated and preserved on a 4 A molecular sieve.
# Amplitude of exploration: 0 to 2 V
# Speed of exploration: 10 mV/second
# Sensitivity: 1.25 μA to 50 μA
# Mean concentration: about 0.3×10^-3 mol/liter
# Between each measurement, the vitrous carbon electrode and the platinum electrode were carefully cleaned with Joseph paper.
# [9] = Static thermostability (GARDNER method), rigid PVC sheets, 185° C., equimolecular quantities; conditions: 1.55×10^-3 mol
# Experimental: as §1, §2, §3, §4, §5, §6, §7, §8
# Finally, a trail was performed at 185° C., with resins containing equimolecular quantities of the dihydropyridines or of 2-phenyl-indole, namely 1.55×10^-3 mol. In this case too, the samples were removed from the oven every 6 minutes over a period of 24 minutes and then every 3 minutes until the 42nd minute (or until carbonization).
# [10] = Colour of the resin after each passage in a blower-extruder
# Experimental: (2) Examination of the colour of the resin after each passage (3 in all) in a blower-extruder, the mould being a 250 ml cylindrical flask.
# Four resins where tested, the first containing 0.2% of 2-phenyl-indole and the others 0.2%, 0.03% and 0.015% of compound 1 respectively.
# [11] = Comparison with 2-phenyl-indole, vinyl chloride-vinyl acetate co-polymer, 185° C.; conditions: 0.3 part
# Experimental: (c) Comparison with 2-phenyl-indole
# A comparative test was made using the following compound:
# The sheets were heated in a ventilated oven at 185° C. and the following results were obtained: […]
# [12] = Comparison with 2-phenyl-indole, vinyl chloride-vinylidene chloride co-polymer, 210° C.; conditions: 0.3 part
# Experimental: A second test was made using the following compound:
# The sheets were heated in a ventilated oven at 210° C. and the following results were obtained: […]
# [13] = Photostabilizing power, sheets exposed to the sun, co-polymer (a)
# Experimental: (§13) The sheets were exposed to the sun and their colorations were also determined according to the GARDNER method.
# [14] = Photostabilizing power, sheets exposed to the sun, rigid co-polymer (b)
# Experimental: as §13
structure (smiles),measurement,setting,value
"C#CCOC(=O)C1=C(C)NC(C)=C(C(=O)OCC#C)C1 [Compound 2, 2,6-Dimethyl-3,5-dicarbopropargyloxy-1,4-dihydropyridine]","coloration, GARDNER scale",[1]; 0 min,1
same,"coloration of the resins, in words",[1]; 0 to 3 minutes,considerably less
same,"coloration, GARDNER scale",[1]; 3 min,1
same,"thermostabilizing power compared to 2-phenyl-indole, in words",[1]; 210° C.,greatly superior to 2-phenyl-indole
same,"coloration, GARDNER scale",[1]; 6 min,1
same,"coloration, GARDNER scale",[1]; 9 min,4
same,"coloration, GARDNER scale",[1]; 12 min,8
same,"coloration, GARDNER scale",[1]; 15 min,12
same,"coloration, GARDNER scale",[1]; 18 min,Burnt
same,"coloration, GARDNER scale",[2]; 0 min,1
same,"coloration, GARDNER scale",[2]; 6 min,1
same,"coloration, GARDNER scale",[2]; 12 min,2
same,"coloration, GARDNER scale",[2]; 18 min,4
same,"coloration, GARDNER scale",[2]; 24 min,6
same,"coloration, GARDNER scale",[2]; 27 min,7
same,"coloration, GARDNER scale",[2]; 30 min,8.5
same,"coloration, GARDNER scale",[2]; 33 min,9
same,"coloration, GARDNER scale",[2]; 36 min,10.5
same,"coloration, GARDNER scale",[2]; 39 min,12
same,"coloration, GARDNER scale",[2]; 42 min,18
same,"coloration, GARDNER scale",[3]; 0 min,1
same,"coloration, GARDNER scale",[3]; 2 min,1
same,"coloration, GARDNER scale",[3]; 4 min,1.5
same,"coloration, GARDNER scale",[3]; 6 min,5
same,"coloration, GARDNER scale",[3]; 8 min,10
same,"coloration, GARDNER scale",[3]; 10 min,12
same,"coloration, GARDNER scale",[3]; 12 min,16
same,"coloration, GARDNER scale",[4]; 0 min,1
same,"coloration, GARDNER scale",[4]; 2 min,1
same,"coloration, GARDNER scale",[4]; 4 min,2
same,"coloration, GARDNER scale",[4]; 6 min,3
same,"coloration, GARDNER scale",[4]; 10 min,8.5
same,"coloration, GARDNER scale",[4]; 12 min,13
same,"coloration, GARDNER scale",[4]; 14 min,17
same,"coloration, GARDNER scale","[4]; column without printed time, between 6 and 10 min",4
same,"coloration, GARDNER scale",[5]; 0 min,1
same,"coloration, GARDNER scale",[5]; 2 min,1
same,"coloration, GARDNER scale",[5]; 4 min,2
same,"coloration, GARDNER scale",[5]; 6 min,4
same,"coloration, GARDNER scale",[5]; 8 min,8
same,"coloration, GARDNER scale",[5]; 10 min,10
same,"coloration, GARDNER scale",[5]; 12 min,12
same,"coloration, GARDNER scale",[5]; 14 min,13
same,Coloration of the plates GARDNER,[6]; exposure to sun 0,1
same,Coloration of the plates GARDNER,[6]; exposure to sun 6h,1
same,Coloration of the plates GARDNER,[6]; exposure to sun 12h,1.5
same,Coloration of the plates FRENCH PHARMACOPEIA,[7]; exposure to sun 0,JV6
same,Coloration of the plates FRENCH PHARMACOPEIA,[7]; exposure to sun 6h,JV6
same,Coloration of the plates FRENCH PHARMACOPEIA,[7]; exposure to sun 12h,JV5
same,Oxidation potential,[8],0.80 ± 0.01 volts
"c1ccc(-c2cc3ccccc3[nH]2)cc1 [2-Phenyl-indole, 2-phenyl-indole, reference compound]","coloration, GARDNER scale",[1]; 0 min,1
same,"coloration, GARDNER scale",[2]; 0 min,1
same,"coloration, GARDNER scale",[2]; 6 min,1
same,"coloration, GARDNER scale",[2]; 12 min,3 and 4 and 5
same,"coloration, GARDNER scale",[2]; 24 min,13 and 11
same,"coloration, GARDNER scale",[2]; 27 min,14 and 13
same,"coloration, GARDNER scale",[2]; 30 min,15 and 14
same,"coloration, GARDNER scale",[2]; 33 min,15 and 14
same,"coloration, GARDNER scale",[2]; 36 min,16 and 14 and 15
same,"coloration, GARDNER scale",[2]; 39 min,16 and 15
same,"coloration, GARDNER scale",[9]; 0 min,1
same,"coloration, GARDNER scale",[9]; 6 min,2
same,"coloration, GARDNER scale",[9]; 12 min,3
same,"coloration, GARDNER scale",[9]; 18 min,10
same,"coloration, GARDNER scale",[9]; 24 min,13
same,"coloration, GARDNER scale",[9]; 27 min,14
same,"coloration, GARDNER scale",[9]; 30 min,14
same,"coloration, GARDNER scale",[9]; 33 min,14
same,"coloration, GARDNER scale",[9]; 36 min,16
same,"coloration, GARDNER scale",[9]; 39 min,16
same,"coloration, GARDNER scale",[9]; 42 min,Burnt
same,colour of the flask,[10]; after the second passage,blue color tending towards green
same,colour of the flask,[10]; after the third passage,greenish-blue
same,"coloration, GARDNER scale",[11]; 0 min,1
same,"coloration, GARDNER scale",[11]; 2 min,1
same,"coloration, GARDNER scale",[11]; 4 min,2
same,"coloration, GARDNER scale",[11]; 6 min,3
same,"coloration, GARDNER scale",[11]; 8 min,8
same,"coloration, GARDNER scale",[11]; 10 min,12
same,"coloration, GARDNER scale",[11]; 12 min,14
same,"coloration, GARDNER scale",[11]; 14 min,17
same,"coloration, GARDNER scale",[12]; 0 min,2 and 1
same,"coloration, GARDNER scale",[12]; 3 min,2 and 1
same,"coloration, GARDNER scale",[12]; 6 min,5 and 4
same,"coloration, GARDNER scale",[12]; 9 min,8.5 and 10
same,"coloration, GARDNER scale",[12]; 12 min,14 and 15
same,"coloration, GARDNER scale",[12]; 15 min,16
same,Coloration of the plates GARDNER,[6]; exposure to sun 6h,3
same,Colour in GARDNER degrees,[13]; After 24 hours,6 GARDNER degrees and 8 GARDNER degrees
same,Colour in GARDNER degrees,[13]; Time 0,1 GARDNER degrees
same,Colour in GARDNER degrees,[14]; After 24 hours,17 GARDNER degrees and 13 GARDNER degrees
same,Colour in GARDNER degrees,[14]; Time 0,1.5 GARDNER degrees and 1 GARDNER degrees
